In US11884612B2, “Covalent peptide binders” (The Regents of the University of California, priority 2016, dated 2024):
Entries after “also recorded” stand apart in the source; their conditions may differ. Positions of bridges follow the written chain, without caps; N, C: chain ends. Non-standard residues stand in square brackets, D forms with d. Residues, ends and D or L forms follow the SMILES beside them. *: point of attachment. Benzoyl(3-SO2F) = O=C(c1cccc(S(=O)(=O)F)c1)*; R8 = C=CCCCCCC[C@@](C)(N)C(=O)O; S5 = C=CCCC[C@](C)(N)C(=O)O; Dap = NC[C@H](N)C(=O)O

What was measured:
p53-Mdm4 interaction = target: T1, p53-Mdm4 interaction (Homo sapiens, UniProt O15151); assay: ReBiL assay of peptide inhibition of p53-Mdm4 interaction in cell lysates; assay type: biochemical; settings: Saos-2 cell lysates
T1 construct: expressed in transfected cells; host or cells: Saos-2 (p53-null) ReBiL reporter cells; lysate
T1 sequence (O15151 1-490): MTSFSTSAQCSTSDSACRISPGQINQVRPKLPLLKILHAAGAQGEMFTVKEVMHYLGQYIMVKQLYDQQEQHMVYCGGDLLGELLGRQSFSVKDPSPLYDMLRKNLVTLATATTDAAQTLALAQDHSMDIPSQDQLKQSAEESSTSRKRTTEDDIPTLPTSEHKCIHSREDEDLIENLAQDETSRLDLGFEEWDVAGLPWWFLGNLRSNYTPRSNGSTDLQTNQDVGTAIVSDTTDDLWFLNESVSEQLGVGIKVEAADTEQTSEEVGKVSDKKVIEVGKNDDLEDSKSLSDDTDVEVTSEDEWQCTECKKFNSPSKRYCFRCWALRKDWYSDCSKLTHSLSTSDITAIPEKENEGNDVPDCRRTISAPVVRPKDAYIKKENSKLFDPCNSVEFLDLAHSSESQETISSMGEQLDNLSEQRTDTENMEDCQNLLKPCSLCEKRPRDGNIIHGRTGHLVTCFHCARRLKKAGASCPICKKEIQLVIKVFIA
From the text: In ReBiL, luciferase is split and separately fused to Mdm2/Mdm4 and p53, and the expression cassette is integrated into a single chromosomal site in host cells (FIG. 3A). Inhibition of the interaction between p53 and Mdm2/Mdm4 results in a decrease in luciferase activity.

Brca1-Bard1 interaction = target: T2, Brca1-Bard1 interaction (Homo sapiens, UniProt P38398+Q99728); assay: ReBiL assay of peptide inhibition of Brca1-Bard1 interaction in cell lysates (binding selectivity); assay type: biochemical; settings: cell lysates of Saos-2 cells
T2 construct: expressed in transfected cells; host or cells: Saos-2 ReBiL reporter cells; lysate
T2 sequence (P38398 whole entry): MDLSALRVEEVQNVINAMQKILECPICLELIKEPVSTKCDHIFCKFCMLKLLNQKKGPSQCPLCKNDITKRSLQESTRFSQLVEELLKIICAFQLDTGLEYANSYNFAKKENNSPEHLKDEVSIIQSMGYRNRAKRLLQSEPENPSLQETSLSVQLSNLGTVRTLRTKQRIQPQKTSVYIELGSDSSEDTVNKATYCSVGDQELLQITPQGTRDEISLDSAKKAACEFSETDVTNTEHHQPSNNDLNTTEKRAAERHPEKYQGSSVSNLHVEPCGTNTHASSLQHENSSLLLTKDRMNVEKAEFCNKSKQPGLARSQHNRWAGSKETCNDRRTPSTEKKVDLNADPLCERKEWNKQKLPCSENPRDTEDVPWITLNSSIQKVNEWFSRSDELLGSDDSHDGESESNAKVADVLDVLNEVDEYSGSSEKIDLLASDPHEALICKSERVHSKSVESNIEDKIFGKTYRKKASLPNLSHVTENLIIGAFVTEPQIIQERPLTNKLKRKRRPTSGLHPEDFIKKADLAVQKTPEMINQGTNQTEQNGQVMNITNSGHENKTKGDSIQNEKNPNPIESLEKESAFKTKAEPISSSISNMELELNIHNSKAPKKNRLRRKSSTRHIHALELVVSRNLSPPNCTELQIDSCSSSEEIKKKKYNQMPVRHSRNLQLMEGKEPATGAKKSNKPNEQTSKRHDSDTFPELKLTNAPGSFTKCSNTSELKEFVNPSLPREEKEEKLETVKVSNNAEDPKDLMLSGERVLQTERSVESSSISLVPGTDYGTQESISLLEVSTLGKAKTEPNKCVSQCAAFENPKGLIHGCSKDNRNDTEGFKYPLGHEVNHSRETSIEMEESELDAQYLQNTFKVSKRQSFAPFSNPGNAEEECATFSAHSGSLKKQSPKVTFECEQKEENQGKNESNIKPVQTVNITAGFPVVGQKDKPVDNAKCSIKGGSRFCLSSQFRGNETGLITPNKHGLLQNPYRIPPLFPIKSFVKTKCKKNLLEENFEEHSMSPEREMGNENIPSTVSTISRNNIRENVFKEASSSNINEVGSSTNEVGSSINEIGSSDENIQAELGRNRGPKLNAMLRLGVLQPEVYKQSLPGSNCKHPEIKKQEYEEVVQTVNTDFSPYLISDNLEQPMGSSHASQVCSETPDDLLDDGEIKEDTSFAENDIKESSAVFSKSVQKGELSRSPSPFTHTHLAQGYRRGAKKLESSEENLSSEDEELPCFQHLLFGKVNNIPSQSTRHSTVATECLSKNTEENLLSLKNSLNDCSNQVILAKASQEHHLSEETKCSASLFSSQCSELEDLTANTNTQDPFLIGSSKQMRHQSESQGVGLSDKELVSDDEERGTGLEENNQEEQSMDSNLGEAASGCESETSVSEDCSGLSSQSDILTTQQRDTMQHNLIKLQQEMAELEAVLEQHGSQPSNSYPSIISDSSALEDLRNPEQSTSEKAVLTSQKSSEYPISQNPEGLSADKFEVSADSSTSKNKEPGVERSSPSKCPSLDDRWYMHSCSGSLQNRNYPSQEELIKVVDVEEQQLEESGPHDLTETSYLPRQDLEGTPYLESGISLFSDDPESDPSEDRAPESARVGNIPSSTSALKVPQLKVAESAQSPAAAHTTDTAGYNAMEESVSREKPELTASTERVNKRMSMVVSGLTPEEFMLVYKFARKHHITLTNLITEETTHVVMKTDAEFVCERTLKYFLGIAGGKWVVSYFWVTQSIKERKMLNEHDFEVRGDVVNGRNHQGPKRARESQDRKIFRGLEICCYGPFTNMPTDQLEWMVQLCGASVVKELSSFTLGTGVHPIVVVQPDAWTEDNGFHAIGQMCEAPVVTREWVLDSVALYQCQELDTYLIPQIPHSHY
T2 sequence (Q99728 whole entry): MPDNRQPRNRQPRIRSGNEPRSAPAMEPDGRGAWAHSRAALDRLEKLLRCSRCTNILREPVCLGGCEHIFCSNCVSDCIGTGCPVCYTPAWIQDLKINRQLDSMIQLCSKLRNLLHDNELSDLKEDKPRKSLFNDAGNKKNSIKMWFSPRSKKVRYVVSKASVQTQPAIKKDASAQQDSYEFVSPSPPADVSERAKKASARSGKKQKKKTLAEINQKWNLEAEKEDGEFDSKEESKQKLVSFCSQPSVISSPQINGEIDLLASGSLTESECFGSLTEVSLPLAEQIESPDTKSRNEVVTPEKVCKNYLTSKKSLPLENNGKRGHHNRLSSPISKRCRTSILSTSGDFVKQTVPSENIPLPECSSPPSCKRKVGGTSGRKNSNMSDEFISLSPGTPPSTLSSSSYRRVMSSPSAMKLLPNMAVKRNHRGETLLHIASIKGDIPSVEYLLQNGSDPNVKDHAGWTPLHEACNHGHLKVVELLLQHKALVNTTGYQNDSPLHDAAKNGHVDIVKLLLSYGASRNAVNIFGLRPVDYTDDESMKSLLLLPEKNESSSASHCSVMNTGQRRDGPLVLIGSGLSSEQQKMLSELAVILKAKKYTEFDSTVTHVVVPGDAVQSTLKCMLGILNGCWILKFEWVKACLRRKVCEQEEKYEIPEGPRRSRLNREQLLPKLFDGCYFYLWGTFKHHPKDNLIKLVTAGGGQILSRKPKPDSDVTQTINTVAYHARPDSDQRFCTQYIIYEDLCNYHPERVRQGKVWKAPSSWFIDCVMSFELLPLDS
Method: To test the binding selectivity of peptides 2, 4 and 5, we then incubated the peptides with cell lysates of Saos-2 cells harboring ReBiL system expressing Brca1-Bard1 instead of p53-Mdm2/Mdmx.

His-tagged Mdm4 = assay: Covalent binding to purified Mdm4 (anti-His immunoblot band shift, ESI-MS)
From the text: FIG. 4. […] After separation by SDS-PAGE, an anti-His antibody was used to detect Mdm4.

p53 null Saos-2 cells = assay: Cell viability (p53-independent cytotoxicity), CELL TITER-GLO assay; settings: 37° C., 8 h, 50, 25, 12.5 uM
Method: Error bars are s.e.m. (n=5) and normalized to the luminescence reading of DMSO treated cells.
Cell viability was measured on the p53-null Saos-2 cells by CELL TITER-GLO® assay per Promega's instructions. Peptides were incubated with the Saos-2 cells at 37° C. for 8 h.

Which “activity to Mdm4 relative to Mdm2” value (p53-Mdm4 interaction) does the source give for `CC(=O)N[C@@H](CCC(N)=O)C(=O)N[C@@H](CO)C(=O)N[C@@H](CCC(N)=O)C(=O)N[C@@H](CCC(N)=O)C(=O)N[C@H](C(=O)N[C@@H](Cc1ccccc1)C(=O)N[C@]1(C)CCCCCCC=CCCC[C@@](C)(C(=O)N[C@@H](CCC(N)=O)C(=O)N[C@@H](CC(N)=O)C(N)=O)NC(=O)[C@H](CC(C)C)NC(=O)[C@H](CC(C)C)NC(=O)[C@H](CCCNC(=N)N)NC(=O)[C@H](Cc2c[nH]c3ccccc23)NC(=O)[C@H](CNC(=O)c2cccc(S(=O)(=O)F)c2)NC(=O)[C@H](CC(N)=O)NC1=O)[C@@H](C)O` [Peptide 4] (Ac-QSQQTF[R8]N[Dap](Benzoyl(3-SO2F))WRLL[S5]QN-NH2; staple 7-14 (inferred)) here?
The value was “ten-fold higher”.

What about the “inhibition of Brca1-Bard1 interaction” value (Brca1-Bard1 interaction) of the same compound?
The value was “did not inhibit”.

What about the “time until crosslinking ("sulfate click reaction") with Mdm4 was complete” value (His-tagged Mdm4; 37° C., PBS buffer pH 7.5) of the same compound?
Its value is at most 10 min.

And the “shift of Mdm4 band to higher molecular weight (covalent binding), immunoblot” value (His-tagged Mdm4; Mdm4 1.5 μM, peptide 3 μM, PBS buffer pH 7.5, 37° C., 10, 20 and 60 min)?
The value was “shifted the Mdm4 band to a higher molecular weight; also recorded: shift of the band to a higher molecular weight”.

What about the “covalent complex formation with Mdm4 by ESI-MS” value (His-tagged Mdm4; incubated 60 min) of the same compound?
The value was “confirmed the covalent complex formation”.

And the “cell viability / cytotoxicity” value (p53 null Saos-2 cells)?
Its value is “no significant cytotoxicity; also recorded: nontoxic”.
